Structures can show the parent of a compound that is named as a salt.

A short description of the series: solubility in water at room temperature. Type of series: physicochemical.

As usually defined, the solubility is the dissolved amount per volume that the medium holds. High values mean a readily soluble substance, low ones a poorly soluble substance. The compound `CCc1c2c(nc3ccc(OC(=O)N4CCC(N5CCCCC5)CC4)cc13)-c1cc3c(c(=O)n1C2)COC(=O)[C@]3(O)CC` [form H, irinotecan hydrochloride] displayed a solubility of more than 20 mg/mL.

For the origin of these results see US8247426B2, “Crystalline irinotecan hydrochloride and methods for its preparation” (Antibioticos S.p.A., priority 2008, dated 2012).
